Data on 3 compounds can be found in patent publication EP0007294A2, “Membrane stabilizing compounds having beta-receptor blocking activity, their preparation, method for treatment of arrhythmic conditions, and pharmaceutical preparations containing same” (priority 1978, dated 1980).

Series [1] in a line: Conscious dogs with ligation of a coronary artery according to Harris: ectopics and convulsions. In kind it is in vivo. The following applies: in vivo. The source says: (§1) Male beagle dogs, 7-13 kg, undergo two days prior to the test a surgical ligation of a coronary artery. On the day of the test the conscious dog is secured in a canvas sling in a standing position and given increasing doses of the test compounds by intravenous administration. ECG, blood pressure etc are monitored and attention is paid to all CNS-effects. The dogs have almost 100 percent of ectopics prior to administration of the compound to be tested. Effects of the test drug on the frequency of ectopics are calculated from ECG. The accumulative end doses giving 50% and 90% reduction of ectopics as well as the ED50 values which give convulsions (side-effect) are measured and given below in Table 3. The value for convulsions is a mean value for 3-5 dogs.
(§2) x) The value given is the final value in a series of doses 0.5 + 1 + 2 + 4 + 8 mg/kg i.v. giving 50% reduction of ectopics. 30 min interval between doses.
(§3) Table 3: Antiarrythmic effect and CNS-effects of four β-receptor blockers, a membrane stabilizer, and ten new compounds with combined β-blocking and membrane stabilizing effect.

The next series deals with ectopics. Described as above. Format: in vivo. The following applies: Canis lupus familiaris, iv.; for ED50: accumulative end dose giving 50% reduction of ectopics, read-out: Conscious dog Harris ligation Ectopics -50%; for ED90: accumulative end dose giving 90% reduction of ectopics, read-out: Conscious dog Harris ligation Ectopics -90%.
Source text: as §1, §2, §3

Series [2] has as its system ouabain-induced arrhythmias. Kind of series: Ouabain-induced arrhythmias in anesthetized guinea-pigs. Format: in vivo. The following applies: for A-A EFFECT IN NUMBER OF ANIMALS: animals with antiarrhythmic effect / animals tested; for LOWEST FREQUENCY: frequency of ventricular premature beats after test solution; for ASYSTOLE: time of asystole under continued ouabain; for V-FIB: time of ventricular fibrillation under continued ouabain. As for the experimental part:
Guinea-pigs of either.sex (300-400 g) were anesthetized with urethane 1,4 g/kg i.p. and tracheotomized. ECG, lead II was picked up with needle electrodes and was registered continuously throughout the experiment. Two i.v. catheters were inserted: one for the administration of ouabain, the other for the test solution.
The experimental design for the study of antiarrhythmic activities is schematically shown in the head of Table 2. The arrhythmia was induced by automatic infusion of ouabain, 18 µg/kg/60" every two minutes for twelve minutes and thereafter 9 µg/kg/30" every two minutes throughout the whole experiment and the infusion was not stopped until asystole occurred. As soon as the frequency of ventricular premature beats (VPB) had passed 50 per cent, the test solution was given i.v. (0,2 ml/min) during 2 min. (see head of Table 2).

The test system of series [3] is chloroform-induced ventricular arrhythmias. Nature of the series: Chloroform-induced ventricular arrhythmias (fibrillation) in mice, intraperitoneal dose. As to conditions: for Number of Animals Protected: protected against CHCl3-induced ventricular fibrillation. An excerpt:
Mice were given an intraperitoneal dose of the test compound. Twenty minutes after dose, they were suffocated in chloroform vapor.- When the animals stopped breathing, the chest was opened to inspect for fibrillation. If the heart was not fibrillating, it was prodded.
Signs of CNS toxicity were noted during the 20-minute interval between dosing and challenge.
"Protected" means number of animals protected against CHC13- induced ventricular fibrillation.

Series [4] is described as follows: Alternative chloroform test on mice: ventricular tachycardia inhibition and ataxia. In kind it is in vivo. As to conditions: mouse, in vivo. Here is the method: (§4) In an alternative chloroform test on mice the ventricular tachycardia inhibition by the test compounds are observed. Thereby the test solution is given subcutaneous and the animal is observed for CNS-effects for 20 min. The mouse is put into a chamber with chloroform until it stops breathing (approx 30 sec.). The animal is then secured on a cork-board and ECG is monitored. If the ventricular rythm is less than 520 beats per min., the animal was protected against ventricular tachycardia. Groups of 10 animals were tested for each dose-level'and the ED50-values have been calculated therefrom. During the test the side-effect ataxia (incordination of movements) is observed.
(§5) In Table 5, as shown, the new compounds tested exerted antiarrhythmic effects also in this te-st.

The subject of series [5] is chloroform induced ventricular tachy-cardia. The series is described as above. As to conditions: Mus musculus; sc.; mice, chloroform; groups of 10 animals per dose-level. Format: in vivo. As for the experimental part: as §4, §5
[6] abbreviates: dose 100 mg/kg intraperitoneal, 10 treated.

Where two headings read alike, the source gives them in different places.

In turn, `COCCc1ccc(OCC(O)CNCCc2ccc(O)cc2)cc1` (stereo not shown) [Ex. 2] displayed a TD50 in series [1] (dog, iv) of 8 mg/kg. Besides, in the series with ectopics, the ED50 turned out to be 4 mg/kg and the ED90 came out at 8 mg/kg. In addition, in series [2] (dose 0.1 mg/kg i.v.), the “A-A EFFECT IN NUMBER OF ANIMALS” value was 7/7, the “LOWEST FREQUENCY” value is 25±7%, the ASYSTOLE worked out at 27 ± 3 min and the V-FIB was 20 ± 2 min. Besides, in series [2] (dose 0.3 mg/kg i.v.), the “A-A EFFECT IN NUMBER OF ANIMALS” value is on record as 6/6, the “LOWEST FREQUENCY” value is recorded as 5±2%, the ASYSTOLE turned out to be 35 ± 3 min and the V-FIB was determined as 29 ± 2 min. In series [3] (setting [6]), the “Number of Animals Dead” value came out at 0 and the “Number of Animals Protected” value came out at 8. In series [3] (mouse, in vivo, ip, 100 mg/kg), the “Number of Animals Convulsive” value stood at 0 and the “Number of Animals LRR” value is on record as 0. The TD50 at 20 min in series [4] (sc) was above 13 mg/kg. Moreover, the ED50 in series [5] was 3 mg/kg.

The compound `COCCc1ccc(OCC(O)CNC(C)C)cc1` (stereo not shown) [Metoprolol] yielded a TD50 in series [1] (dog, iv) above 8 mg/kg. Also, in the series on ectopics, the ED50 was found to be 4 mg/kg and the ED90 came to 8 mg/kg. Also, in series [2] (dose 0.03 mg/kg i.v.), the “A-A EFFECT IN NUMBER OF ANIMALS” value is 6/6, the “LOWEST FREQUENCY” value is on record as 34±5%, the ASYSTOLE was found to be 35 ± 4 min and the V-FIB turned out to be 25 ± 3 min. In addition, in series [2] (dose 0.1 mg/kg i.v.), the “A-A EFFECT IN NUMBER OF ANIMALS” value was 6/6, the “LOWEST FREQUENCY” value is 16±7%, the ASYSTOLE was 38 ± 5 min and the V-FIB is 32 ± 5 min. Moreover, in series [2] (dose 0.3 mg/kg i.v.), the “A-A EFFECT IN NUMBER OF ANIMALS” value is given as 6/6, the “LOWEST FREQUENCY” value is given as 1±1%, the ASYSTOLE came to 48 ± 6 min and the V-FIB was 37 ± 3 min. In series [4] (sc), this compound returned a TD50 at 20 min above 50 mg/kg. In series [5], this compound displayed an ED50 of 2.6 mg/kg.

Regarding `CC(C)NCC(O)COc1cccc2ccccc12` (stereo not shown) [Propranolol], the TD50 in series [1] (iv., conscious dog, mean value for 3-5 dogs, read-out: ED50 Convulsive) came out at 8 mg/kg. For the same compound, in the series on ectopics, the ED50 is 1 mg/kg and the ED90 was 3 mg/kg. Also, in series [2] (dose 0.03 mg/kg i.v.), the “A-A EFFECT IN NUMBER OF ANIMALS” value is 6/7, the “LOWEST FREQUENCY” value came to 29±5%, the ASYSTOLE came to 29 ± 2 min and the V-FIB worked out at 21 ± 3 min. In addition, in series [2] (dose 0.1 mg/kg i.v.), the “A-A EFFECT IN NUMBER OF ANIMALS” value is listed as 6/7, the “LOWEST FREQUENCY” value is reported as 9±5%, the ASYSTOLE turned out to be 35 ± 4 min and the V-FIB came out at 30 ± 5 min. In series [2] (dose 0.3 mg/kg i.v.), the “A-A EFFECT IN NUMBER OF ANIMALS” value is on record as 6/6, the “LOWEST FREQUENCY” value was 4±2%, the ASYSTOLE was determined as 32 ± 5 min and the V-FIB was 27 ± 6 min. Moreover, in series [3] (setting [6]), the “Number of Animals Dead” value came out at 0 and the “Number of Animals Protected” value is 10. In addition, the “Number of Animals Convulsive” value in series [3] (dose 100 mg/kg intraperitoneal, 10 treated, convulsions within 20 minutes after dosing) turned out to be 10. In series [3] (dose 100 mg/kg intraperitoneal, 10 treated, loss of righting reflex), the “Number of Animals LRR” value worked out at 1. In addition, the TD50 at 20 min in series [4] (sc., mice, observed for 20 min, read-out: Ataxia ED50) was above 1 mg/kg. For the same compound, the ED50 in series [5] is 0.6 mg/kg.
